In test [1] the target is T1, renin (Homo sapiens, UniProt P00797).
T1 sequence (P00797 67-406): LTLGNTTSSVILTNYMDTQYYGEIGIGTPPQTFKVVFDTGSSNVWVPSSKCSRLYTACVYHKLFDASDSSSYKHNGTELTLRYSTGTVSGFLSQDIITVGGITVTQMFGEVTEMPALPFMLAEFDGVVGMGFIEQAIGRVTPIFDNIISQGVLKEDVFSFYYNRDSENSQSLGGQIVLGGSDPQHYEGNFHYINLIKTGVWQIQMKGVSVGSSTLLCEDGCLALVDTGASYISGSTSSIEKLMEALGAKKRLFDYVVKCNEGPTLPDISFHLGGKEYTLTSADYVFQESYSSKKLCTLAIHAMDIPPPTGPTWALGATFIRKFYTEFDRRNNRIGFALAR
Kind of test: renin inhibition (IC50 printed in the synthesis text, no method described). Type of test: biochemical.

The test system of test [2] is hog renin. Particulars: after the injection of hog renin into nephrectomized rats; cited from earlier work.

Square brackets hold non-standard residues; d marks the D form. Peptide text beside a SMILES is read from it. * marks the point of attachment. Sta = CC(C)C[C@H](N)[C@@H](O)CC(=O)O; Isovaleryl = CC(C)CC(=O)*

The values that follow come from patent US4839357A, “Renin inhibitors containing phenylalanyl-histidine replacements” (Merck & Co., Inc., priority 1987, dated 1989).

`CC(C)S(=O)(=O)C[C@@H](CCc1ccccc1)C(=O)N[C@@H](Cc1c[nH]cn1)C(=O)N[C@@H](CC1CCCCC1)[C@@H](O)CC(=O)NC1CN2CCC1CC2` (stereo partly drawn) [3-benzyl-2-(S)-(isopropylsulfonylmethyl)propionyl-L-histidyl-(3S,4S)-4-amino-5-cyclohexyl 3-hydroxypentanoyl 3-quinuclidinyl amide]: in test [1], inhibition was half-maximal at 0.011 µM (IC50).

Take `CC(C)CC(=O)N[C@H](C(=O)N[C@H](C(=O)N[C@@H](CC(C)C)[C@@H](O)CC(=O)N[C@@H](C)C(=O)N[C@@H](CC(C)C)[C@@H](O)CC(=O)O)C(C)C)C(C)C` [pepstatin] (Isovaleryl-VV[Sta]A[Sta]-OH): the “blood pressure in vivo” value in test [2] was “reduces blood pressure”.
